Experimental data as given in ChEMBL document CHEMBL2010784 (ACS Med Chem Lett, 2011).

System: Vaccinia virus
Assay: Antiviral activity against Vaccinia virus Lederle infected in HEL cells assessed as inhibition of viral-induced cytopathogenicity
Format: functional, organism-based
Details: Orthopoxvirus vaccinia

Row | SMILES | EC50
1 | C#C[C@]1(CO)S[C@@H](n2ccc(N)nc2=O)C[C@@H]1O | 6.5 µM
2 | C#C[C@]1(CO)S[C@@H](n2cnc3c(N)ncnc32)C[C@@H]1O | 52 µM
3 | C#C[C@]1(CO)S[C@@H](n2cnc3c(=O)[nH]c(N)nc32)C[C@@H]1O | 27 µM
4 | Nc1nc2c(ncn2COC(CO)CO)c(=O)[nH]1 [GANCICLOVIR] | 100 µM
